# What was measured:
# [1] = tested on: fetal hemoglobin gene HBG1; test: HBG1 Nanostring Assay in CD34+ HSPC erythroid differentiation culture; assay type: cell-based, human; settings: for EC50: HBG1 induction, Day10 of erythroid differentiation; for Nanostring Ymax obs (%): relative to a control compound (C1)
# Summary of the method: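 HBG1 counts came from direct nCounter hybridization (67° C, 22 h) of day-10 lysates, normalized to ERCC positive controls and a housekeeping gene, giving EC50 and Ymax versus a reference compound. Compounds in 0.1% DMSO were present from day −2 while cells underwent EPO/SCF/IL-3 erythroid differentiation, with IL-3 dropped at day 7, at 37° C.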
# [2] = tested on: Cullin-3 (CUL3) neddylation; test: AlphaLISA assay for Cullin-3 (CUL3) neddylation in TF 1 cells; assay type: cell-based; settings: 3 hours treatment
# Summary of the method: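 Neddylated CUL3 was quantified by AlphaLISA in lysates of TF 1 cells exposed for 3 h to test compound in IMDM without supplements. Percent inhibition set between vehicle and 1 μM DI-1548 positive control; IC50 derived by Hill-equation fitting of dose-response curves.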
# DCN1 protein = DCN1 protein (Homo sapiens (Human), UniProt Q96GG9); test: Intact Protein MS Analysis with the RapidFire-TOF System (covalent adduct formation); assay type: binding; settings: MS Emax; 400 nM DCN1, 3 hours at room temperature
# Summary of the method: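 Tag-cleaved human DCN1 (400 nM) expressed in E. coli, in 25 mM Tris-HCl, 200 mM NaCl, 1 mM DTT, was incubated with 11 compound concentrations for 3 h at room temperature and quenched with 0.2% formic acid. Intact-protein Q-TOF MS with deconvolution detected the compound adduct mass.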
# Chain of DCN1 protein (Q96GG9 whole entry): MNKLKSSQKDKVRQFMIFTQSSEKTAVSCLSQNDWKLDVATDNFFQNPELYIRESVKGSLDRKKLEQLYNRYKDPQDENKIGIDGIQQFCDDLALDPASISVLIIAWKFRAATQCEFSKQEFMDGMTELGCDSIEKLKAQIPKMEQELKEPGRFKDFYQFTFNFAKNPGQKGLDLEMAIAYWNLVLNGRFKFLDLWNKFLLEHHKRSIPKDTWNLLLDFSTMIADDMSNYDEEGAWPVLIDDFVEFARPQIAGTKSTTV
Structure (SMILES),EC50 [1],Nanostring Ymax obs (%) [1],IC50 [2],% Adduct Formation (DCN1 protein),"EC50 ([1]; Homo sapiens, 240 h)","IC50 ([2]; Homo sapiens, TF-1, 3 h)"
CCN1C(=O)[C@@H](NC(=O)c2cccc(C(F)(F)F)c2)[C@@H](c2ccc(F)cc2)c2c([C@@H](C)NC#N)nn(-c3ccccc3)c21 (mixture of isomers) [Compound I-167],100 to 1000 nM,++ (Nanostring Ymax greater than 50.0 and less than or equal to 100.0),≤ 100 nM,+++ (MS Emax % adduct formation greater than 80.0 and less than or equal to 100.0),,
CCN1C(=O)[C@@H](NC(=O)c2cccc(C(F)(F)F)c2)[C@@H](c2ccc(F)cc2)c2c(NC(=O)[C@@H](C)Br)nn(-c3ccccc3)c21 (mixture of isomers) [Compound I-177],,++ (Nanostring Ymax greater than 50.0 and less than or equal to 100.0),,+ (MS Emax % adduct formation greater than or equal to 0.0 and less than or equal to 30.0),> 1000 nM,100 to 1000 nM
CCN1C(=O)[C@@H](NC(=O)c2cccc(C(F)(F)F)c2)[C@@H](c2ccc(F)cc2)c2c([C@@H](C)NC(=O)CCl)nn(-c3ccccc3)c21 (mixture of isomers) [Compound I-190],,++ (Nanostring Ymax greater than 50.0 and less than or equal to 100.0),,+ (MS Emax % adduct formation greater than or equal to 0.0 and less than or equal to 30.0),> 1000 nM,> 1000 nM
C#CC(=O)N[C@H](C)c1nn(-c2ccccc2)c2c1[C@H](c1ccc(F)cc1)[C@H](NC(=O)c1cccc(C(F)(F)F)c1)C(=O)N2CC (mixture of isomers) [Compound I-236],,+ (Nanostring Ymax greater than or equal to 0.0 and less than or equal to 50.0),,+++ (MS Emax % adduct formation greater than 80.0 and less than or equal to 100.0),≤ 100 nM,≤ 100 nM
C=C(CN(C)C)C(=O)NCc1nn(-c2ccccc2)c2c1[C@H](c1ccc(F)cc1)[C@H](NC(=O)c1cccc(C(F)(F)F)c1)C(=O)N2CC (racemic) [Compound I-18],,+ (Nanostring Ymax greater than or equal to 0.0 and less than or equal to 50.0),,+++ (MS Emax % adduct formation greater than 80.0 and less than or equal to 100.0),100 to 1000 nM,≤ 100 nM
CCN1C(=O)[C@@H](NC(=O)c2cccc(C(F)(F)F)c2)[C@@H](c2ccc(F)cc2)c2c(CNC(=O)/C(C#N)=C/C(C)(C)C)nn(-c3ccccc3)c21 (racemic) [Compound I-173],,++ (Nanostring Ymax greater than 50.0 and less than or equal to 100.0),,+++ (MS Emax % adduct formation greater than 80.0 and less than or equal to 100.0),100 to 1000 nM,≤ 100 nM
C=C(CN(C)C)C(=O)N(C)Cc1nn(-c2ccccc2)c2c1[C@H](c1ccc(F)cc1)[C@H](NC(=O)c1cccc(C(F)(F)F)c1)C(=O)N2CC (racemic) [Compound I-178],,++ (Nanostring Ymax greater than 50.0 and less than or equal to 100.0),,+++ (MS Emax % adduct formation greater than 80.0 and less than or equal to 100.0),100 to 1000 nM,≤ 100 nM
CCN1C(=O)[C@@H](NC(=O)c2cccc(C(F)(F)F)c2)[C@@H](c2ccc(F)cc2)c2c(CNC(=O)[C@H](C)Cl)nn(-c3ccccc3)c21 (racemic) [Compound I-179],,+ (Nanostring Ymax greater than or equal to 0.0 and less than or equal to 50.0),,+ (MS Emax % adduct formation greater than or equal to 0.0 and less than or equal to 30.0),> 1000 nM,100 to 1000 nM
CCN1C(=O)[C@@H](NC(=O)c2cccc(C(F)(F)F)c2)[C@@H](c2ccc(F)cc2)c2c(CNC(=O)[C@H](C)Br)nn(-c3ccccc3)c21 (racemic) [Compound I-180],,+ (Nanostring Ymax greater than or equal to 0.0 and less than or equal to 50.0),,+ (MS Emax % adduct formation greater than or equal to 0.0 and less than or equal to 30.0),> 1000 nM,100 to 1000 nM
C#CC(=O)NCc1nn(-c2ccccc2)c2c1[C@H](c1ccc(F)cc1)[C@H](NC(=O)c1cccc(C(F)(F)F)c1)C(=O)N2CC (racemic) [Compound I-181],,+ (Nanostring Ymax greater than or equal to 0.0 and less than or equal to 50.0),,+ (MS Emax % adduct formation greater than or equal to 0.0 and less than or equal to 30.0),≤ 100 nM,≤ 100 nM
CC#CC(=O)NCc1nn(-c2ccccc2)c2c1[C@H](c1ccc(F)cc1)[C@H](NC(=O)c1cccc(C(F)(F)F)c1)C(=O)N2CC (racemic) [Compound I-184],,++ (Nanostring Ymax greater than 50.0 and less than or equal to 100.0),,+ (MS Emax % adduct formation greater than or equal to 0.0 and less than or equal to 30.0),,100 to 1000 nM
C=C(CN1CCOCC1)C(=O)N(C)Cc1nn(-c2ccccc2)c2c1[C@H](c1ccc(F)cc1)[C@H](NC(=O)c1cccc(C(F)(F)F)c1)C(=O)N2CC (racemic) [Compound I-185],,++ (Nanostring Ymax greater than 50.0 and less than or equal to 100.0),,+ (MS Emax % adduct formation greater than or equal to 0.0 and less than or equal to 30.0),,100 to 1000 nM
"CCN1C(=O)[C@@H](NC(=O)c2cccc(C(F)(F)F)c2)[C@@H](c2ccc(F)cc2)c2c(Cn3sccc3=O)nn(-c3ccccc3)c21 (racemic) [Compound I-192, rac-N-((4R,5R)-7-ethyl-4-(4-fluorophenyl)-6-oxo-3-((3-oxoisothiazol-2(3H)-yl)methyl)-1-phenyl-4,5,6,7-tetrahydro-1H-pyrazolo[3,4-b]pyridine-5-yl)-3-(trifluoromethyl)benzamide]",,+ (Nanostring Ymax greater than or equal to 0.0 and less than or equal to 50.0),,++ (MS Emax % adduct formation greater than 30.0 and less than or equal to 80.0),100 to 1000 nM,100 to 1000 nM
C#CC(=O)N(C)Cc1nn(-c2ccccc2)c2c1[C@H](c1ccc(F)cc1)[C@H](NC(=O)c1cccc(C(F)(F)F)c1)C(=O)N2CC (racemic) [Compound I-201],,+ (Nanostring Ymax greater than or equal to 0.0 and less than or equal to 50.0),,+++ (MS Emax % adduct formation greater than 80.0 and less than or equal to 100.0),≤ 100 nM,100 to 1000 nM
C=CC(=O)NCc1nn(-c2ccccc2)c2c1[C@H](c1ccc(F)cc1)[C@H](NC(=O)c1cccc(C(F)(F)F)c1)C(=O)N2CC (racemic) [Compound I-202],,+ (Nanostring Ymax greater than or equal to 0.0 and less than or equal to 50.0),,+ (MS Emax % adduct formation greater than or equal to 0.0 and less than or equal to 30.0),,100 to 1000 nM
CCN1C(=O)[C@@H](NC(=O)c2cccc(C(F)(F)F)c2)[C@@H](c2ccc(F)cc2)c2c(CNC(=O)/C=C/CN3CCC3)nn(-c3ccccc3)c21 (racemic) [Compound I-203],,+ (Nanostring Ymax greater than or equal to 0.0 and less than or equal to 50.0),,+ (MS Emax % adduct formation greater than or equal to 0.0 and less than or equal to 30.0),100 to 1000 nM,100 to 1000 nM
CCN1C(=O)[C@@H](NC(=O)c2cccc(C(F)(F)F)c2)[C@@H](c2ccc(F)cc2)c2c(CNC(=O)C3=CCC3)nn(-c3ccccc3)c21 (racemic) [Compound I-204],,+ (Nanostring Ymax greater than or equal to 0.0 and less than or equal to 50.0),,+ (MS Emax % adduct formation greater than or equal to 0.0 and less than or equal to 30.0),> 1000 nM,100 to 1000 nM
C=C(C)C(=O)NCc1nn(-c2ccccc2)c2c1[C@H](c1ccc(F)cc1)[C@H](NC(=O)c1cccc(C(F)(F)F)c1)C(=O)N2CC (racemic) [Compound I-206],,+ (Nanostring Ymax greater than or equal to 0.0 and less than or equal to 50.0),,+ (MS Emax % adduct formation greater than or equal to 0.0 and less than or equal to 30.0),> 1000 nM,100 to 1000 nM

# Reference: US20250163057A1, “DCN-1 MODULATING COMPOUNDS AND METHODS OF USE THEREOF” (Cellarity, Inc., priority 2023, published 2025)
